ChEMBL document CHEMBL2434903, “Synthesis and biological evaluation of furopyrimidine N,O-nucleosides” (Bioorg Med Chem, 2013)
Calls of active or inactive are those of the source. The calls are words filed in the database; no cut-off is given here.

Tests used:
[1] = Cytotoxicity against African green monkey BSC1 cells assessed as change in cell morphology after 24 to 96 hrs by light microscopic analysis; type: cell-based, BSC-1; conditions: chlorocebus aethiops
[2] = Cytostatic activity against human MRC5 cells by MTT assay; type: ADME, cell-based
[3] = tested on: Human alphaherpesvirus 1; assay: Antiviral activity against Herpes simplex virus type 1 VR-260 infected in African green monkey Vero cells assessed as inhibition of virus-induced cytopathogenicity; type: functional, organism-based
[4] = tested on: Human adenovirus 2; assay: Antiviral activity against Adenovirus 2 VR-1080 infected in African green monkey Vero cells assessed as inhibition of virus-induced cytopathogenicity; type: functional, organism-based
[5] = Cytostatic activity against African green monkey Vero cells by MTT assay; type: ADME, cell-based; conditions: chlorocebus sabaeus
[6] = Cytotoxicity against human MRC5 cells assessed as change in cell morphology after 24 to 96 hrs by light microscopic analysis; type: cell-based
[7] = tested on: Coxsackievirus B4; assay: Antiviral activity against Coxsackievirus B4 VR-1035 infected in African green monkey Vero cells assessed as inhibition of virus-induced cytopathogenicity; type: functional, organism-based
[8] = tested on: Human alphaherpesvirus 2; assay: Antiviral activity against Herpes simplex virus type 2 VR-734 infected in African green monkey Vero cells assessed as inhibition of virus-induced cytopathogenicity; type: functional, organism-based
[9] = tested on: Poliovirus 1; assay: Antiviral activity against Poliovirus 1 Sabin VR-1562 infected in African green monkey Vero cells assessed as inhibition of virus-induced cytopathogenicity; type: functional, cell-based; conditions: Human poliovirus 1 strain Sabin
[10] = tested on: Human alphaherpesvirus 3; assay: Antiviral activity against Varicella-zoster virus VR-1367 infected in African green monkey BSC1 cells assessed as inhibition of virus plaque formation; type: functional, organism-based; conditions: BSC-1
[11] = Cytotoxicity against African green monkey Vero cells assessed as change in cell morphology after 24 to 96 hrs by light microscopic analysis; type: cell-based; conditions: chlorocebus sabaeus
[12] = tested on: Echovirus E9; assay: Antiviral activity against Human echovirus 9 VR-1050 infected in African green monkey Vero cells assessed as inhibition of virus-induced cytopathogenicity; type: functional, organism-based
[13] = tested on: Human betaherpesvirus 5; assay: Antiviral activity against Cytomegalovirus VR-538 infected in human MRC5 cells assessed as inhibition of virus-induced cytopathogenicity; type: functional, organism-based
[14] = Cytostatic activity against African green monkey BSC1 cells by MTT assay; type: ADME, cell-based, BSC-1; conditions: chlorocebus aethiops

Structure (SMILES)	MCC [1] [µM]	CC50 [2] [µM]	inhibition [3]	inhibition [4]	CC50 [5] [µM]	MCC [6] [µM]	inhibition [7]	inhibition [8]	inhibition [9]	inhibition [10]	MCC [11] [µM]	inhibition [12]	inhibition [13]	CC50 [14] [µM]
CCCc1cc2cn(C3CC(CO)N(C)O3)c(=O)nc2o1 (stereo not drawn)	> 250	31.2	inactive	inactive	31.2	> 250	inactive	inactive	inactive	inactive	> 500	inactive	inactive	7
CN1OC(n2cc3ccoc3nc2=O)CC1CO (racemic)	> 250	> 250	inactive	inactive	125	> 250	inactive	inactive	inactive	inactive	> 500	inactive	inactive	62
CCCCCc1ccc(-c2cc3cn(C4CC(CO)N(C)O4)c(=O)nc3o2)cc1 (racemic)	6	1.5	inactive	inactive	3	6	inactive	inactive	inactive	inactive	6	inactive	inactive	0.7
CN1OC(n2cc3cc(-c4ccccc4)oc3nc2=O)CC1CO (racemic)	> 250	125	inactive	inactive	125	> 250	inactive	inactive	inactive	inactive	125	inactive	inactive	32
COc1ccc(-c2cc3cn(C4CC(CO)N(C)O4)c(=O)nc3o2)cc1 (racemic)	62	31.2	inactive	inactive	62.5	62	inactive	inactive	inactive	inactive	62.5	inactive	inactive	7
Nc1nc2c(ncn2COCCO)c(=O)[nH]1			Active	Active			Active	Active	Active	Active		Active	Active	
